From patent US20250144067A1, “PERSONALIZED STARVATION THERAPY FOR CANCER” (Faeth Therapeutics, Inc., priority 2021, published 2025)
Structures can show the parent of a compound that is named as a salt. Peptide text beside a SMILES is read from it.

Columns and labels:
[1] = system: NCI-H292 lung cancer cells; experiment: FDA drug screening, complete media vs cholesterol-free media without statin (TABLE 1); format: cell-based, human
[2] = system: NCI-H292 lung cancer cells; experiment: FDA drug screening, complete media vs cholesterol-free media with simvastatin (TABLE 2); format: cell-based, human; conditions: for Cholesterol-free media + simvastatin (0.04 μM) / Complete Media: NCI-H292 cells
[3] = Complete minus Cholesterol-free, >0 enhanced anti-cancer activity, about 0 neutral, <0 antagonist
[4] = NCI-H292 cells, cholesterol-free media without statin, FDA drug library screen
[5] = NCI-H292 cells, complete media, FDA drug library screen
[6] = FDA drug library screen, cholesterol-free media with simvastatin 0.04 μM
[7] = FDA drug library screen, complete media
[8] = complete media minus cholesterol-free media + simvastatin, >0 enhanced anti-cancer activity, about 0 neutral, <0 antagonist
[9] = NCI-H292 cells, cholesterol-free media without statin
[10] = complete vs cholesterol-free media, greater than 0 enhanced anti-cancer activity, about 0 neutral, below 0 antagonists
[11] = complete media vs cholesterol-free media + simvastatin (0.04 μM), >0 enhanced anti-cancer activity, about 0 neutral, <0 antagonist
[12] = Complete minus Cholesterol-free, greater than 0 enhanced anti-cancer activity, about 0 neutral, below 0 antagonists
[13] = NCI-H292 cells in cholesterol-free media without statin
[14] = NCI-H292 cells in complete media
[15] = drug in cholesterol-free media with simvastatin 0.04 μM
[16] = Complete minus Cholesterol-free, greater than 0 enhanced anti-cancer activity, about 0 neutral, below 0 antagonist
[17] = NCI-H292 cells, FDA drug library screen, cholesterol-free media without statin
[18] = NCI-H292 cells, FDA drug library screen, complete media
[19] = cholesterol-free media with simvastatin 0.04 μM, FDA drug library screen (TABLE 2)
[20] = complete media, FDA drug library screen (TABLE 2)
[21] = complete media minus cholesterol-free media + simvastatin (0.04 μM), >0 enhanced anti-cancer activity, about 0 neutral, <0 antagonist
[22] = complete vs cholesterol-free media, >0 enhanced anti-cancer activity, about 0 neutral, <0 antagonist
[23] = Complete minus Cholesterol-free, […]
[24] = FDA library drug in cholesterol-free media with simvastatin 0.04 μM
[25] = FDA library drug in complete media

Row | Compound | Difference [1, 3] | Cholesterol-free media + simvastatin (0.04 μM) [2, 6] | Complete Media [2, 7] | Cholesterol-free [1, 9] | Complete ([1]; NCI-H292 cells, complete media) | Difference [2, 11] | Cholesterol-free media + simvastatin (0.04 μM) [2, 15] | Complete Media ([2]; drug in complete media) | further results
1 | OCCN1CCN(CCCN2c3ccccc3Sc3ccc(Cl)cc32)CC1 [Perphenazine] | 0.00 | 0.707 | 0.9554 | – | – | – | – | – | Cholesterol-free [1, 4]: 0.9098; Complete [1, 5]: 0.9103; Difference [2, 8]: 0.25
2 | FC(F)(F)c1ccc(CNc2ccc(Cc3c[nH]c4ncc(Cl)cc34)cn2)cn1 [Pexidartinib (hydrochloride)] | – | 1.136 | 1.002 | 1.204 | 0.7514 | −0.13 | – | – | Difference [1, 10]: −0.45
3 | FC(F)(F)c1ccc(CNc2ccc(Cc3c[nH]c4ncc(Cl)cc34)cn2)cn1 [Pexidartinib] | – | – | – | – | – | −0.19 | 1.767 | 1.579 | Difference [1, 12]: −0.77; Cholesterol-free [1, 13]: 1.609; Complete [1, 14]: 0.8353
4 | CCOc1ccc(NC(C)=O)cc1 [Phenacetin] | – | 1.132 | 1.048 | – | – | −0.08 | – | – | Difference [1, 16]: −0.09; Cholesterol-free [1, 17]: 0.9552; Complete [1, 18]: 0.8688
5 | COS(=O)(=O)[O-].C[n+]1c2ccccc2nc2ccccc21 [Phenazine (methylsulfate)] | −0.01 | – | – | – | – | – | – | – | Cholesterol-free [1, 4]: 0.03605; Complete [1, 5]: 0.02161; Cholesterol-free media + simvastatin (0.04 μM) [2, 19]: 0.07249; Complete Media [2, 20]: 0.06209; Difference [2, 21]: −0.01
6 | Nc1ccc(/N=N/c2ccccc2)c(N)n1 [Phenazopyridine (hydrochloride)] | −0.06 | 1.284 | 1.801 | – | – | – | – | – | Cholesterol-free [1, 4]: 1.194; Complete [1, 5]: 1.131; Difference [2, 8]: 0.52
7 | [H]/N=C(/N)N/C(=N/[H])NCCc1ccccc1 [Phenformin (hydrochloride)] | – | 1.171 | 1.373 | – | – | – | – | – | Difference [1, 16]: −0.12; Cholesterol-free [1, 17]: 0.9657; Complete [1, 18]: 0.8472; Difference [2, 8]: 0.20
8 | O=C1c2ccccc2C(=O)C1c1ccccc1 [Phenindione] | – | – | – | – | – | −0.17 | 1.567 | 1.395 | Cholesterol-free [1, 4]: 0.7484; Difference [1, 22]: 0.40
9 | O=C1OC(c2ccc(O)cc2)(c2ccc(O)cc2)c2ccccc21 [Phenolphthalein] | −0.30 | – | – | 1.17 | 0.8721 | −0.24 | 1.026 | 0.7863 | –
10 | c1ccc2c(c1)Nc1ccccc1S2 [Phenothiazine] | – | – | – | – | – | – | – | – | Difference [1, 23]: −0.11; Cholesterol-free [1, 17]: 1.108; Complete [1, 18]: 1.002; Cholesterol-free media + simvastatin (0.04 μM) ([2]; cholesterol-free media with simvastatin 0.04 μM, […]): 1.18; Complete Media ([2]; complete media, […]): 1.261; Difference ([2]; complete media minus cholesterol-free media + simvastatin, […]): 0.08
11 | CC(COc1ccccc1)N(CCCl)Cc1ccccc1 (centres unmarked) [Phenoxybenzamine (hydrochloride)] | – | – | – | 0.9421 | 0.7375 | – | – | – | Difference [1, 23]: −0.20; Cholesterol-free media + simvastatin (0.04 μM) [2, 19]: 0.9012; Complete Media [2, 20]: 0.8799; Difference ([2]; complete media minus cholesterol-free media + simvastatin (0.04 μM), […]): −0.02
12 | CCC(c1ccccc1)c1c(O)c2ccccc2oc1=O (centres unmarked) [Phenprocoumon] | – | – | – | 1.312 | 0.8729 | −0.16 | 1.071 | 0.9061 | Difference [1, 10]: −0.44
13 | CN1C(=O)CC(c2ccccc2)C1=O (centres unmarked) [Phensuximide] | −0.30 | – | – | 1.128 | 0.8334 | −0.22 | 1.556 | 1.333 | –
14 | CCCCC1C(=O)N(c2ccccc2)N(c2ccccc2)C1=O [Phenylbutazone] | −0.26 | – | – | 1.376 | 1.114 | – | – | – | Cholesterol-free media + simvastatin (0.04 μM) ([2]; cholesterol-free media with simvastatin 0.04 μM, cell growth value in FDA drug screen): 1.076; Difference [2, 8]: 0.07
15 | CNC[C@H](O)c1cccc(O)c1 [Phenylephrine (hydrochloride)] | – | 2.302 | – | – | – | – | – | – | Difference [1, 12]: −0.61; Cholesterol-free [1, 13]: 1.371; Complete [1, 14]: 0.7558; Difference [2, 21]: −1.21
16 | CNC[C@H](O)c1cccc(O)c1 [Phenylephrine] | – | 1.256 | 1.518 | 1.197 | 0.817 | – | – | – | Difference [1, 10]: −0.38; Difference [2, 8]: 0.26
17 | O=C1NC(=O)C(c2ccccc2)(c2ccccc2)N1 [Phenytoin (sodium)] | −0.27 | – | – | 1.197 | 0.9283 | – | – | – | Cholesterol-free media + simvastatin (0.04 μM) [2, 19]: 0.8893; Complete Media [2, 20]: 0.8884; Difference [2, 21]: 0.00
18 | O=C1NC(=O)C(c2ccccc2)(c2ccccc2)N1 [Phenytoin] | – | 1.316 | 1.23 | – | – | −0.09 | – | – | Cholesterol-free [1, 4]: 0.8044; Complete [1, 5]: 0.8965; Difference [1, 22]: 0.09
19 | CC(=O)NS(=O)(=O)c1ccc(NC(=O)c2ccccc2C(=O)O)cc1 [Phthalylsulfacetamide] | −0.29 | – | – | 1.274 | 0.9792 | −0.32 | – | – | Cholesterol-free media + simvastatin (0.04 μM) [2, 24]: 1.031; Complete Media [2, 25]: 0.7098
20 | O=C1CC[C@@H](C(=O)N2CSC[C@H]2C(=O)O)N1 [Pidotimod] (HELM PEPTIDE1{[Glp].[O=C(O)[C@@H]1CSCN1[*:1]]}$$$$V2.0) | – | – | – | 1.383 | 0.9708 | – | – | – | Difference [1, 10]: −0.41; Cholesterol-free media + simvastatin (0.04 μM) [2, 19]: 1.016; Complete Media [2, 20]: 1.03; Difference [2, 21]: 0.01
21 | CC(C)COc1ccc(CNC(=O)N(Cc2ccc(F)cc2)C2CCN(C)CC2)cc1 [Pimavanserin] | – | 0.8784 | 1.133 | – | – | – | – | – | Cholesterol-free [1, 4]: 0.9868; Complete [1, 5]: 1.126; Difference [1, 22]: 0.14; Difference [2, 8]: 0.25
22 | CC[C@@H]1/C=C(\C)C[C@H](C)C[C@H](OC)[C@H]2O[C@@](O)(C(=O)C(=O)N3CCCC[C@H]3C(=O)O[C@H](/C(C)=C/[C@@H]3CC[C@H](Cl)[C@H](OC)C3)[C@H](C)[C@@H](O)CC1=O)[C@H](C)C[C@@H]2OC [Pimecrolimus] | −0.26 | – | – | 1.022 | 0.7576 | −0.21 | 1.1 | 0.8909 | –
23 | CN1CCC(=C2c3ccccc3Sc3ccccc32)CC1 [Pimethixene maleate] | – | – | – | 1.492 | 1.142 | −0.18 | 1.097 | 0.9153 | Difference [1, 10]: −0.35
24 | COc1ccc(-c2nc3ccc(C4=NNC(=O)CC4C)cc3[nH]2)cc1 (centres unmarked) [Pimobendan] | – | – | – | – | – | – | – | – | Difference [1, 16]: −0.11; Cholesterol-free [1, 17]: 1.104; Complete [1, 18]: 0.9932; Cholesterol-free media + simvastatin (0.04 μM) [2, 19]: 1.535; Complete Media [2, 20]: 1.535; Difference [2, 21]: 0.00
25 | O=c1[nH]c2ccccc2n1C1CCN(CCCC(c2ccc(F)cc2)c2ccc(F)cc2)CC1 [Pimozide] | – | 0.8031 | 0.9681 | 1.1 | 0.6361 | – | – | – | Difference [1, 10]: −0.46; Difference [2, 8]: 0.16
26 | CC(N/C(=N\C#N)Nc1ccncc1)C(C)(C)C (centres unmarked) [Pinacidil monohydrate] | −0.26 | – | – | 1.093 | 0.8337 | −0.28 | – | – | Cholesterol-free media + simvastatin (0.04 μM) [2, 24]: 1.085; Complete Media [2, 25]: 0.8064
27 | CC(C)NCC(O)COc1cccc2[nH]ccc12 (centres unmarked) [Pindolol] | – | – | – | – | – | −0.25 | 1.032 | 0.7777 | Cholesterol-free [1, 4]: 0.8852; Complete [1, 5]: 0.973; Difference [1, 22]: 0.09
28 | CCc1ccc(CCOc2ccc(CC3SC(=O)NC3=O)cc2)nc1 (centres unmarked) [Pioglitazone (hydrochloride)] | −0.30 | – | – | 1.265 | 0.9669 | −0.25 | 1.247 | 1.002 | –
29 | CCc1ccc(CCOc2ccc(CC3SC(=O)NC3=O)cc2)nc1 (centres unmarked) [Pioglitazone] | – | – | – | – | – | −0.57 | – | – | Cholesterol-free [1, 4]: 0.8939; Difference [1, 22]: 0.27; Cholesterol-free media + simvastatin (0.04 μM) [2, 24]: 2.095; Complete Media [2, 25]: 1.521
